Measured values as given in patent publication US9845326B2, “Substituted 3,4-dihydropyrrolo[1,2-A]pyrazines as beta-secretase (BACE) inhibitors” (priority 2011, dated 2017).

Tests used:
BACE1 = BACE1 (Homo sapiens, UniProt P56817); assay: Biochemical FRET based assay; settings: Biochemical FRET based assay pIC50, recombinant BACE1 1 μg/ml, 120 min, room temperature, pH 5.0
From the text: This assay is a Fluorescence Resonance Energy Transfer Assay (FRET) based assay. The substrate for this assay is an APP derived 13 amino acids peptide that contains the ‘Swedish’ Lys-Met/Asn-Leu mutation of the amyloid precursor protein (APP) β-secretase cleavage site. This substrate also contains two fluorophores: (7-methoxy-coumarin-4-yl) acetic acid (Mca) is a fluorescent donor with excitation wavelength at 320 nm and emission at 405 nm and 2,4-Dinitrophenyl (Dnp) is a proprietary quencher acceptor. […] Upon cleavage by BACE1, the fluorophore Mca is separated from the quenching group Dnp, restoring the full fluorescence yield of the donor. The increase in fluorescence is linearly related to the rate of proteolysis (Koike H et al. J. Biochem. 1999, 126, 235-242).
Briefly in a 384-well format recombinant BACE1 protein in a final concentration of 1 μg/ml is incubated for 120 min at room temperature with 10 μm substrate in incubation buffer (40 mM Citrate buffer pH 5.0, 0.04% PEG, 4% DMSO) in the absence or presence of compound. Next the amount of proteolysis is directly measured by fluorescence measurement at T=0 and T=120 (excitation at 320 nm and emission at 405 nm). Results are expressed in RFU, as difference between T120 and T0
From this an IC50 value (inhibitory concentration causing 50% inhibition of activity) can be obtained.

Aβtotal = assay: Cellular αlisa assay in SKNBE2 cells, Aβtotal; assay type: cell-based, human; settings: SKNBE2 cells expressing hAPP695, 18 hours incubation; for IC50: Homo sapiens, SKNBE2, 18 h, read-out: Cellular αlisa assay in SKNBE2 cells Aβtotal pIC50 (converted)
Procedure: (§1) In two αlisa assays the levels of Aβtotal and Aβ42 produced and secreted into the medium of human neuroblastoma SKNBE2 cells are quantified. The assay is based on the human neuroblastoma SKNBE2 expressing the wild type Amyloid Precursor Protein (hAPP695). The compounds are diluted and added to these cells, incubated for 18 hours and then measurements of Aβ42 and Aβtotal are taken. Aβtotal and Aβ42 are measured by sandwich αlisa. αlisa is a sandwich assay using biotinylated antibody AbN/25 attached to streptavidin coated beads and antibody Ab4G8 or cAb42/26 conjugated acceptor beads for the detection of Aβtotal and Aβ42 respectively. In the presence of Aβtotal or Aβ42, the beads come into close proximity. The excitation of the Donor beads provokes the release of singlet oxygen molecules that triggers a cascade of energy transfer in the Acceptor beads, resulting in light emission. Light emission is measured after 1 hour incubation (excitation at […] and emission at 615 nm).
(§2) From this an […] value (inhibitory concentration causing 50% inhibition of activity) can be obtained.

Aβ42 = assay: Cellular αlisa assay in SKNBE2 cells, Aβ42; assay type: cell-based, human; settings: SKNBE2 cells expressing hAPP695, 18 hours incubation; for IC50: Homo sapiens, SKNBE2, 18 h, read-out: Cellular αlisa assay in SKNBE2 cells Aβ42 pIC50 (converted)
Procedure: as §1, §2

Sequence of BACE1 (P56817 46-501): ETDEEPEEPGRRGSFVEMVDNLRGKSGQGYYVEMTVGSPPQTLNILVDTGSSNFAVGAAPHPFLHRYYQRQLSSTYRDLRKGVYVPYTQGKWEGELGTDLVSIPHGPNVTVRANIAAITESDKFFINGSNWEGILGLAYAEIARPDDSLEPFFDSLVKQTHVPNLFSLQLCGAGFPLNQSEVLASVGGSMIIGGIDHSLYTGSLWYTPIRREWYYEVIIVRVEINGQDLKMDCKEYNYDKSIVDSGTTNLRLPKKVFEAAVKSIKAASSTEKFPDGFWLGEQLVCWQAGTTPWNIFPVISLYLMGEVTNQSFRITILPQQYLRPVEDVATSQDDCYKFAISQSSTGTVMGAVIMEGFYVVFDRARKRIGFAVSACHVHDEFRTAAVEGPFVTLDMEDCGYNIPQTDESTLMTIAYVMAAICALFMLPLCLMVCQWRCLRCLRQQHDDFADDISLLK

| SMILES | IC50 (BACE1) | IC50 (Aβtotal) | IC50 (Aβ42) | Cellular αlisa assay in SKNBE2 cells Aβtotal pIC50 (Aβtotal) | Cellular αlisa assay in SKNBE2 cells Aβ42 pIC50 (Aβ42) |
| --- | --- | --- | --- | --- | --- |
| Cc1nc(C(=O)Nc2ccc(F)c([C@]3(C)Cn4cc(C(F)(F)F)cc4C(N)=N3)c2)c(C(F)(F)F)o1 [Compound 23] | 0.182 µM | 0.0776 µM | 0.0759 µM |  |  |
| COc1cnc(C(=O)Nc2ccc(F)c(C3(C(F)F)Cn4cccc4C(N)=N3)c2)cn1 (single isomer, unassigned) [Compound 12] | 0.0372 µM |  |  | 7.9 | 7.85 |
| Cc1nc(C(=O)Nc2ccc(F)c([C@]3(C)Cn4cc(C(F)(F)F)cc4C(N)=N3)c2)co1 [Compound 20] | 0.102 µM | 0.0234 µM | 0.024 µM |  |  |
| C[C@@]1(c2cc(NC(=O)c3ccc(C#N)cn3)ccc2F)Cn2cc(C(F)(F)F)cc2C(N)=N1 [Compound 9] | 0.0339 µM | 0.0107 µM | 0.012 µM |  |  |
| Cc1nc(C(=O)Nc2ccc(F)c([C@]3(C)Cn4cc(F)cc4C(N)=N3)c2)c(C(F)(F)F)o1 [Compound 18] | 0.0832 µM | 0.0309 µM | 0.0316 µM |  |  |
| COCC1(c2cc(NC(=O)c3ccn(C(F)F)n3)ccc2F)Cn2cc(C(F)(F)F)cc2C(N)=N1 (stereo not drawn) [Compound 26] | 2.88 µM | 0.537 µM | 0.501 µM |  |  |
| Cc1nc(C(=O)Nc2ccc(F)c([C@]3(C)Cn4cc(F)cc4C(N)=N3)c2)c(C)o1 [Compound 17] | 0.0676 µM | 0.0339 µM | 0.0324 µM |  |  |
| COCC1(c2cc(NC(=O)c3ccc(F)cn3)ccc2F)Cn2cc(C(F)(F)F)cc2C(N)=N1 (stereo not drawn) [Compound 29] | 2.04 µM |  |  | 6.33 | 6.32 |
| COc1cnc(C(=O)Nc2ccc(F)c(C3(C(F)F)Cn4cccc4C(N)=N3)c2)cn1 (racemic) [Compound 11] | 0.107 µM | 0.00955 µM | 0.011 µM |  |  |
| Cc1nc(C(=O)Nc2ccc(F)c([C@]3(C)Cn4cc(C(F)(F)F)cc4C(N)=N3)c2)co1 [Compound 21] | 0.0955 µM |  |  | 7.79 | 7.83 |
| COCC1(c2cc(NC(=O)c3cnc(OC)cn3)ccc2F)Cn2cc(C(F)(F)F)cc2C(N)=N1 (stereo not drawn) [Compound 27] | > 50.1 µM |  |  | <5 | <5 |
| C[C@@]1(c2cc(NC(=O)c3ccc(Cl)cn3)ccc2F)Cn2cccc2C(N)=N1 [Compound 5, (R)-5-chloro-pyridine-2-carboxylic acid [3-(1-amino-3-methyl-3,4-dihydro-pyrrolo[1,2-a]pyrazin-3-yl)-4-fluoro-phenyl]-amide] | 0.0372 µM | 0.00282 µM | 0.00295 µM |  |  |
| COCC1(c2cc(NC(=O)c3cnc(OC)cn3)ccc2F)Cn2cc(C(F)(F)F)cc2C(N)=N1 (stereo not drawn) [Compound 24] | 3.16 µM |  |  | 6.35 | 6.30 |
| COc1cnc(C(=O)Nc2ccc(F)c([C@]3(C)Cn4cc(F)cc4C(N)=N3)c2)cn1 [Compound 8, (R)-5-methoxy-pyrazine-2-carboxylic acid [3-(1-amino-7-fluoro-3-methyl-3,4-dihydro-pyrrolo[1,2-a]pyrazin-3-yl)-4-fluoro-phenyl]-amide] | 0.0331 µM | 0.00204 µM | 0.00219 µM |  |  |
| CC1(c2cccc(NC(=O)c3ccc(Cl)cn3)c2)Cn2cccc2C(N)=N1 (racemic) [Compound 3, rac-5-chloro-pyridine-2-carboxylic acid[3-(1-amino-3-methyl-3,4-dihydro-pyrrolo[1,2-a]pyrazin-3-ye-phenyl]-amide] | 0.135 µM | 0.0955 µM | 0.1 µM |  |  |
| COCC1(c2cc(NC(=O)c3ccc(F)cn3)ccc2F)Cn2cc(C(F)(F)F)cc2C(N)=N1 (stereo not drawn) [Compound 30] | 34.7 µM |  |  | <5 | <5 |
| COCC1(c2cc(NC(=O)c3ccn(C(F)F)n3)ccc2F)Cn2cc(C(F)(F)F)cc2C(N)=N1 (single isomer, unassigned) [Compound 31] | > 50.1 µM |  |  | <5 | <5 |
| NC1=NC(c2cc(NC(=O)c3ccc(F)cn3)ccc2F)(C(F)F)Cn2cccc21 (stereo not drawn) [Compound 14] | 0.174 µM | 0.0355 µM | 0.0372 µM |  |  |
| COCC1(c2cc(NC(=O)c3ccn(C(F)F)n3)ccc2F)Cn2cc(C(F)(F)F)cc2C(N)=N1 (single isomer, unassigned) [Compound 32] | 1.74 µM |  |  | 6.53 | 6.54 |
| CC1(c2cccc(-c3cc(Cl)cc(Cl)c3)c2)Cn2cccc2C(N)=N1 (racemic) [Compound 2, rac-3-(3′,5′-dichloro-biphenyl-3-yl)-3-methyl-3,4-dihydro-pyrrolo[1,2-a]pyrazin-1-ylamine] | 3.72 µM | 4.27 µM | 4.47 µM |  |  |
| C[C@@]1(c2cc(NC(=O)c3ccsn3)ccc2F)Cn2cc(C(F)(F)F)cc2C(N)=N1 [Compound 22] | 0.224 µM | 0.0479 µM | 0.049 µM |  |  |
| Cc1nc(C(=O)Nc2ccc(F)c([C@]3(C)Cn4cc(C(F)(F)F)cc4C(N)=N3)c2)c(C)o1 [Compound 19] | 0.178 µM | 0.0631 µM | 0.0661 µM |  |  |
| COCC1(c2cc(NC(=O)c3ccc(F)cn3)ccc2F)Cn2cc(C(F)(F)F)cc2C(N)=N1 (stereo not drawn) [Compound 25] | 5.01 µM |  |  | 6.07 | 6.04 |
| CC1(c2cccc(-c3cncnc3)c2)Cn2cccc2C(N)=N1 (racemic) [Compound 1, rac-3-methyl-3-(3-pyrimidin-5-yl-phenyl)-3,4-dihydro-pyrrolo[1,2-a]pyrazin-1-ylamine] | 12 µM | 3.89 µM | 3.98 µM |  |  |
| Cc1nc(C(=O)Nc2ccc(F)c([C@]3(C)Cn4cc(F)cc4C(N)=N3)c2)co1 [Compound 16] | 0.049 µM | 0.0195 µM | 0.0204 µM |  |  |
| C[C@@]1(c2cc(NC(=O)c3ccn(C(F)F)n3)ccc2F)Cn2cc(C(F)(F)F)cc2C(N)=N1 [Compound 10] | 0.0479 µM | 0.0126 µM | 0.0135 µM |  |  |
| COCC1(c2cc(NC(=O)c3cnc(OC)cn3)ccc2F)Cn2cc(C(F)(F)F)cc2C(N)=N1 (stereo not drawn) [Compound 28] | 1.91 µM |  |  | 6.52 | 6.53 |
| COc1cnc(C(=O)Nc2cccc(C3(C)Cn4cccc4C(N)=N3)c2)cn1 (racemic) [Compound 4, rac-5-methoxy-pyrazine-2-carboxylic acid [3-(1-amino-3-methyl-3,4-dihydro-pyrrolo[1,2-a]pyrazin-3-ye-phenyl]-amide] | 0.234 µM | 0.0933 µM | 0.11 µM |  |  |
| C[C@@]1(c2cc(NC(=O)c3ncc(C#N)cc3F)ccc2F)Cn2cc(C(F)(F)F)cc2C(N)=N1 [Compound 15] | 0.0363 µM | 0.00891 µM | 0.00933 µM |  |  |
| COc1cnc(C(=O)Nc2ccc(F)c(C3(C(F)F)Cn4cccc4C(N)=N3)c2)cn1 (single isomer, unassigned) [Compound 13] | 18.2 µM |  |  | 5.62 | 5.63 |
